Results: patent publication US20230398161A1 (priority 2020, published 2023)

Experiments:
[1] = system: Escherichia coli (E. coli) strain ATCC 700928; assay: Urinary tract infection model in C3H/OuJ mice, CK570: E. coli burden (CFU) in tissues; conditions: positive control, IV, all timepoints assessed
Experimental: The vehicle used in this study was 1×TBS.
C3H/OuJ female mice, aged approximately 8 weeks and weighing 21 to 24 grams, were used in this study. Mice were housed with 1 to 5 animals per cage and were provided food (5P76 Prolab isopro irradiated lab diet) and water ad libitum.
Mice were anesthetized with 1-4% isoflurane in oxygen for 2-3 minutes until a deep plane of anesthesia was achieved, confirmed by toe pinch reflex. Each mouse was then placed on a board, ventral side up, with the nose inserted into a nose cone supplying isoflurane. The lower abdomen was gently massaged to expel any urine in the bladder. […] For IV administration, mice were manually restrained in a restrainer device, and study treatment was administered via the lateral tail vein. A dose volume of 100 μL was used for IV injections. For IU administration, the same method was used as for the original administration of E. coli. A dose volume of 50 μL was used for IU administration.
All CFU data were log-transformed.

[2] = system: 300-strain clinical isolate panel with an additional 4 strains; assay: Host range of CK618 and antibiotics alone and in combination, 304-isolate panel; assay type: cell-based, E. coli; conditions: antibiotic at concentration printed after name plus CK618
Experimental: (§1) The first assay used a panel of 88 contemporaneous urinary tract infection (UTI) isolates from North America, Europe, Latin America, and Asia. […] The second assay used a panel made up of a 300-strain clinical isolate panel (Table 14) with an additional 4 strains of interest. […] Four of the same SOC antibiotics tested against the 88-isolate panel were tested against this panel. The non-SOC antibiotics were not included due to their limited use in clinical settings, and nitrofurantoin was not included due to the low probability of resistance to this drug.
(§2) For both isolate panels, antibiotic concentrations tested were determined by using Clinical and Laboratory Standards Institute (CLSI) or European Committee on Antimicrobial Susceptibility Testing (EUCAST) breakpoints at concentrations that kill susceptible isolates but allow intermediate or resistant isolates to grow in the standard AST microdilution assay (Table 17).
(§3) The cocktail was then mixed with bacteria to obtain final titers of 1×10^6 plaque-forming unit (PFU)/mL/phage for the cocktail and 1×10^5 colony-forming unit (CFU)/mL for the bacteria, resulting in a multiplicity of infection (MOI) of 10 for each phage in a sample. […] Reactions were incubated at 37° C. with shaking and OD measurements were taken each hour for 20 hours.

[3] = system: 88 contemporaneous urinary tract infection (UTI) isolates; assay type: cell-based, E. coli; conditions: both isolate panels, Tables 18, 19
Experimental: as §1, §2, §3

Compound | bacterial burden in each tissue [1] | Host range % on all strains (n = 304), Combination: Antibiotic + LBP-CK618 [2] [%] | host range on MDR and beta-lactam-resistant strains compared with all strains (in words) [3] | host range performance on all strains (in words) [3]
O=C(O)c1cn(C2CC2)c2cc(N3CCNCC3)c(F)cc2c1=O [Ciprofloxacin] | significantly reduced bacterial burden to the LOD | – | – | –
C[C@@H]1O[C@@H]1P(=O)(O)O [Fosfomycin] | – | 97.0 | performed similarly regardless of antibiotic resistance status | strong activity across all strains
Trimethoprim/Sulfamethoxazole [TMP/SXT] | – | 81.9 | – | –
